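Each compound was tested at five concentrations against cells in 96-well plates for 48 hours. At the TGI there is no net growth.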
Tests used:
Assay in all cases: NCI tumour cell line growth inhibition, 48 h
[1] = test system: A498 renal
[2] = test system: A549 NSCLC
[3] = test system: CAKI-1 renal
[4] = test system: CCRF-CEM leukemia
[5] = test system: COLO 205 colon
[6] = test system: DLD-1 colon
[7] = test system: DMS 114 small cell lung
[8] = test system: DMS 273 small cell lung
[9] = test system: EKVX NSCLC
[10] = test system: HCC-2998 colon
[11] = test system: HCT-116 colon
[12] = test system: HCT-15 colon
[13] = test system: HL-60(TB) leukemia
[14] = test system: HOP-18 NSCLC
[15] = test system: HOP-92 NSCLC
[16] = test system: HT29 colon
[17] = test system: IGROV1 ovarian
[18] = test system: K-562 leukemia
[19] = test system: KM12 colon
[20] = test system: KM20L2 colon
[21] = test system: LOX IMVI melanoma
[22] = test system: M19-MEL melanoma
[23] = test system: MALME-3M melanoma
[24] = test system: MCF7 breast
[25] = test system: MOLT-4 leukemia
[26] = test system: NCI-H226 lung
[27] = test system: NCI-H23 lung
[28] = test system: NCI-H460 lung
[29] = test system: NCI-H522 lung
[30] = test system: NCI/ADR-RES ovarian
[31] = test system: OVCAR-3 ovarian
[32] = test system: OVCAR-4 ovarian
[33] = test system: OVCAR-5 ovarian
[34] = test system: OVCAR-8 ovarian
[35] = test system: P388 leukemia
[36] = test system: P388/ADR leukemia
[37] = test system: RPMI-8226 leukemia
[38] = test system: RXF 393 renal
[39] = test system: SF-268 CNS
[40] = test system: SF-295 CNS
[41] = test system: SF-539 CNS
[42] = test system: SK-MEL-2 melanoma
[43] = test system: SK-MEL-28 melanoma
[44] = test system: SK-MEL-5 melanoma
[45] = test system: SK-OV-3 ovarian
[46] = test system: SN12C renal
[47] = test system: SN12K1 renal
[48] = test system: SNB-19 CNS
[49] = test system: SNB-75 CNS
[50] = test system: SNB-78 CNS
[51] = test system: SW-620 colon
[52] = test system: U251 CNS
[53] = test system: UACC-257 melanoma
[54] = test system: UACC-62 melanoma
[55] = test system: UO-31 renal
[56] = test system: XF 498 CNS
[57] = test system: 786-0 renal
[58] = test system: HOP-62 NSCLC
[59] = test system: M14 melanoma
[60] = test system: RXF-631 renal
[61] = test system: SR leukemia
[62] = test system: TK-10 renal
[63] = test system: ACHN renal
[64] = test system: LXFL 529 NSCLC

Work on `CCCCN(C)/N=N/c1nc[nH]c1C(N)=O` yielded a TGI [1] of over 100 µM, a TGI [2] of over 100 µM and a TGI [3] of over 100 µM. For the same compound, the TGI [4] was over 100 µM, the TGI [5] was over 100 µM and the TGI [6] was over 100 µM. For the same compound, the TGI [7] was over 100 µM, the TGI [8] was over 100 µM and the TGI [9] was over 100 µM. For the same compound, the TGI [10] was over 100 µM, the TGI [11] was over 100 µM and the TGI [12] was over 100 µM. It also gave a TGI [13] of over 100 µM, a TGI [14] of over 100 µM and a TGI [15] of over 100 µM. It also gave a TGI [16] of over 100 µM, a TGI [17] of over 100 µM and a TGI [18] of over 100 µM. For the same compound, the TGI [19] was over 100 µM, the TGI [20] was over 100 µM and the TGI [21] was over 100 µM. The TGI [22] was over 100 µM, the TGI [23] was over 100 µM and the TGI [24] was over 100 µM. The TGI [25] was over 100 µM, the TGI [26] was over 100 µM and the TGI [27] was over 100 µM. For the same compound, the TGI [28] was over 100 µM, the TGI [29] was over 100 µM and the TGI [30] was over 100 µM. The TGI [31] was over 100 µM, the TGI [32] was over 100 µM and the TGI [33] was over 100 µM. For the same compound, the TGI [34] was over 100 µM, the TGI [35] was over 100 µM and the TGI [36] was over 100 µM. It also gave a TGI [37] of over 100 µM, a TGI [38] of over 100 µM and a TGI [39] of over 100 µM. The TGI [40] was over 100 µM, the TGI [41] was over 100 µM and the TGI [42] was over 100 µM. For the same compound, the TGI [43] was over 100 µM, the TGI [44] was over 100 µM and the TGI [45] was over 100 µM. For the same compound, the TGI [46] was over 100 µM, the TGI [47] was over 100 µM and the TGI [48] was over 100 µM. It also gave a TGI [49] of over 100 µM, a TGI [50] of over 100 µM and a TGI [51] of over 100 µM. The TGI [52] was over 100 µM, the TGI [53] was over 100 µM and the TGI [54] was over 100 µM. The TGI [55] was over 100 µM and the TGI [56] was 95.5 µM.
For `COC1CC(O)C(OC(=O)c2ccccc2)C(C)O1` (configuration not stated), the TGI [57] was over 100 µM, the TGI [1] was over 100 µM and the TGI [2] was over 100 µM. It also gave a TGI [3] of over 100 µM, a TGI [4] of over 100 µM and a TGI [5] of over 100 µM. The TGI [8] was over 100 µM, the TGI [10] was over 100 µM and the TGI [11] was over 100 µM. The TGI [12] was over 100 µM, the TGI [13] was over 100 µM and the TGI [14] was over 100 µM. The TGI [58] was over 100 µM, the TGI [15] was over 100 µM and the TGI [16] was over 100 µM. It also gave a TGI [17] of over 100 µM, a TGI [18] of over 100 µM and a TGI [19] of over 100 µM. It also gave a TGI [20] of over 100 µM, a TGI [21] of over 100 µM and a TGI [59] of over 100 µM. For the same compound, the TGI [22] was over 100 µM, the TGI [23] was over 100 µM and the TGI [25] was over 100 µM. It also gave a TGI [26] of over 100 µM, a TGI [27] of over 100 µM and a TGI [28] of over 100 µM. It also gave a TGI [29] of over 100 µM, a TGI [31] of over 100 µM and a TGI [32] of over 100 µM. It also gave a TGI [33] of over 100 µM, a TGI [34] of over 100 µM and a TGI [37] of over 100 µM. The TGI [60] was over 100 µM, the TGI [39] was over 100 µM and the TGI [40] was over 100 µM. It also gave a TGI [41] of over 100 µM, a TGI [43] of over 100 µM and a TGI [44] of over 100 µM. For the same compound, the TGI [46] was over 100 µM, the TGI [48] was over 100 µM and the TGI [50] was over 100 µM. For the same compound, the TGI [61] was over 100 µM, the TGI [51] was over 100 µM and the TGI [62] was over 100 µM. It also gave a TGI [52] of over 100 µM, a TGI [54] of over 100 µM and a TGI [56] of over 100 µM.
For `Cc1ccc(C)c(N2C(=O)C(=O)C(c3nc4ccccc4o3)C(=O)C2=O)c1`, the TGI [57] was over 100 µM, the TGI [1] was over 100 µM and the TGI [2] was over 100 µM. For the same compound, the TGI [63] was over 100 µM, the TGI [3] was over 100 µM and the TGI [4] was over 100 µM. The TGI [5] was 95.4 µM, the TGI [6] was 65.6 µM and the TGI [7] was over 100 µM. The TGI [8] was over 100 µM, the TGI [9] was over 100 µM and the TGI [10] was over 100 µM. For the same compound, the TGI [11] was 90.5 µM, the TGI [12] was over 100 µM and the TGI [13] was 61.3 µM. For the same compound, the TGI [14] was over 100 µM, the TGI [58] was over 100 µM and the TGI [15] was over 100 µM. The TGI [16] was over 100 µM, the TGI [17] was over 100 µM and the TGI [19] was over 100 µM. The TGI [20] was over 100 µM, the TGI [64] was over 100 µM and the TGI [59] was over 100 µM. For the same compound, the TGI [22] was over 100 µM, the TGI [23] was over 100 µM and the TGI [25] was over 100 µM. The TGI [26] was over 100 µM, the TGI [27] was over 100 µM and the TGI [28] was over 100 µM. It also gave a TGI [31] of over 100 µM, a TGI [32] of over 100 µM and a TGI [34] of over 100 µM. For the same compound, the TGI [38] was over 100 µM, the TGI [60] was over 100 µM and the TGI [39] was over 100 µM. For the same compound, the TGI [40] was over 100 µM, the TGI [41] was over 100 µM and the TGI [42] was over 100 µM. The TGI [43] was over 100 µM, the TGI [44] was over 100 µM and the TGI [45] was over 100 µM. For the same compound, the TGI [46] was over 100 µM, the TGI [48] was over 100 µM and the TGI [49] was over 100 µM. It also gave a TGI [50] of over 100 µM, a TGI [61] of over 100 µM and a TGI [51] of over 100 µM. The TGI [62] was over 100 µM, the TGI [52] was over 100 µM and the TGI [53] was over 100 µM. The TGI [54] was over 100 µM and the TGI [55] was over 100 µM.

Reference: PubChem BioAssay (NCI)
